Earlier results on one molecule are cited in patent publication US20250170128A1, “Obicetrapib and SGLT2 Inhibitor Combination” (NE[…] B.V. (Dutch Chamber of Commerce No. 5597 1946), priority 2021, published 2025).

The conditions of data set [1]: clinical studies.
A further data set concerns the target T1, CETP (Homo sapiens, UniProt P11597).
T1 construct: CETP is a plasma protein secreted primarily by liver and adipose tissue
T1 sequence (P11597 18-493): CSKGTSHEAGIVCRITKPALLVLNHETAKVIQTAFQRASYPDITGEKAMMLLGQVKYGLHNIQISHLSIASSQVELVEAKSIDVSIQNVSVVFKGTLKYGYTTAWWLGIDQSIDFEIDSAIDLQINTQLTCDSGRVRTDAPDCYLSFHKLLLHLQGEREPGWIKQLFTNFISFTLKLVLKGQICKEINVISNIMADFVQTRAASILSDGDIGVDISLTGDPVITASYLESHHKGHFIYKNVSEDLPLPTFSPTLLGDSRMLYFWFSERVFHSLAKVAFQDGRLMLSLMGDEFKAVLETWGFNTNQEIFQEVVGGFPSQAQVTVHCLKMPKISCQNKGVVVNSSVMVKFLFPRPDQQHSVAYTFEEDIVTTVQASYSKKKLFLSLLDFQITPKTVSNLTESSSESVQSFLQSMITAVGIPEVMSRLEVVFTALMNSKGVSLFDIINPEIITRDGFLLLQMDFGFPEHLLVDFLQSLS
The following applies: repeated daily dosages (once a day) as low as 2.5 mg.

Regarding `CCOC(=O)N1c2ccc(C(F)(F)F)cc2[C@@H](N(Cc2cc(C(F)(F)F)cc(C(F)(F)F)c2)c2ncc(OCCCC(=O)O)cn2)C[C@H]1CC` [compound of Formula (I), (2R,4S)-4-{[3,5-bis(trifluoromethyl)benzyl]-[5-(3-carboxypropoxy)pyrimidin-2-yl]amino}-2-ethyl-6-trifluoromethyl-3,4-dihydro-2H-quinoline-1-carboxylic acid ethyl ester], in data set [1], the serious side effects entry was “does not lead to serious side effects” and the tolerability result is on record as “well tolerated”. The CETP inhibition result on CETP is listed as “near complete CETP-inhibition”.
